Data reported in ChEMBL document CHEMBL6103570, “An endoplasmic reticulum and lipid droplets dual-localized strategy to develop small molecular photosensitizers that induce ferroptosis during photodynamic therapy” (Eur J Med Chem, 2025).
Calls of active or inactive are those of the source. No cut-off for these calls is given here.

Columns and labels:
[1] = Darktoxicity in human MDA-MB-231 cells assessed as cell viability preincubated for 24 hrs followed by incubation under dark condition for 24 hrs by MTT assay; type: toxicity, cell-based; conditions: time 48 hrs
[2] = (§1) Photo selectivity index, ratio of CC50 for darktoxicity in human Bcap37 cells assessed as cell viability preincubated for 24 hrs followed by incubation under dark condition for 24 hrs by MTT assay to IC50 for phototoxicity in human Bcap37 cells assessed as cell viability preincubated for 24 hrs followed by white light irradiation at 20 mW/cm2 for 10 mins and measured after 24 hrs by MTT assay; type: toxicity, cell-based; conditions: read-out: Ratio CC50/IC50
[3] = as §1, with “mouse 4T1” for “human Bcap37”; type: toxicity, cell-based; conditions: read-out: Ratio CC50/IC50
[4] = as §1, with “MDA-MB-231” for “Bcap37”; type: toxicity, cell-based; conditions: read-out: Ratio CC50/IC50
[5] = Phototoxicity in human Bcap37 cells assessed as cell viability preincubated for 24 hrs followed by white light irradiation at 20 mW/cm2 for 10 mins and measured after 24 hrs by MTT assay; type: functional, cell-based; conditions: Bcap37, light or radiation study
[6] = Phototoxicity in human MCF7 cells assessed as cell viability preincubated for 24 hrs followed by white light irradiation at 20 mW/cm2 for 10 mins and measured after 24 hrs by MTT assay; type: functional, cell-based; conditions: MCF7, light or radiation study
[7] = Darktoxicity in mouse 4T1 cells assessed as cell viability preincubated for 24 hrs followed by incubation under dark condition for 24 hrs by MTT assay; type: toxicity, cell-based; conditions: time 48 hrs
[8] = Darktoxicity in human Bcap37 cells assessed as cell viability preincubated for 24 hrs followed by incubation under dark condition for 24 hrs by MTT assay; type: toxicity, cell-based; conditions: time 48 hrs
[9] = as §1, with “MCF7” for “Bcap37”; type: toxicity, cell-based; conditions: read-out: Ratio CC50/IC50
[10] = Phototoxicity in human MDA-MB-231 cells assessed as cell viability preincubated for 24 hrs followed by white light irradiation at 20 mW/cm2 for 10 mins and measured after 24 hrs by MTT assay; type: functional, cell-based; conditions: MDA-MB-231, light or radiation study
[11] = Phototoxicity in mouse 4T1 cells assessed as cell viability preincubated for 24 hrs followed by white light irradiation at 20 mW/cm2 for 10 mins and measured after 24 hrs by MTT assay; type: functional, cell-based; conditions: 4T1, light or radiation study
[12] = Darktoxicity in human MCF7 cells assessed as cell viability preincubated for 24 hrs followed by incubation under dark condition for 24 hrs by MTT assay; type: toxicity, cell-based; conditions: time 48 hrs
[13] = Drug localization in Lipid droplet of mouse 4T1 cells assessed as increase in green fluorescence by measuring pearson correlation coefficient at 2 uM incubated for 12 hrs by confocal scanning microscopy analysis; type: ADME, subcellular; conditions: 4t1, 12 h
4T1 [14] = experiment: Antitumor activity against mouse 4T1 cells implanted in mouse model assessed as reduction in tumor growth at 3 mg/kg, IG measured every two days for 15 days by digital caliper method; type: functional, organism-based; conditions: time 15.0 day
[15] = Toxicity in mouse assessed as effect on heart in at 3 mg/kg, IG measured after 15 days by H and E staining based analysis; type: organism-based; conditions: in vivo, po, 360 h, time 15 day
[16] = Photosensitizing ability of the compound in NaOH assessed as fluorescence quantum yield; type: functional
[17] = Toxicity in mouse assessed as effect on liver in at 3 mg/kg, IG measured after 15 days by H and E staining based analysis; type: organism-based; conditions: in vivo, po, 360 h, time 15 day
4T1 [18] = experiment: Induction of ferroptosis in mouse 4T1 cells assessed as cell viability at 20 nM preincubated for 24 hrs followed by white light irradiation at 20 mW/cm2 and measured after 24 hrs in presence of Fer-1 by MTT assay; type: functional, cell-based; conditions: time 48.0 hrs
[19] = Toxicity in mouse assessed as effect on lung in at 3 mg/kg, IG measured after 15 days by H and E staining based analysis; type: organism-based; conditions: in vivo, po, 360 h, time 15 day
[20] = Photosensitizing ability of the compound in EtOH assessed as singlet oxygen quantum yield at 100 nM under 520nm 30 mW/cm2 light irradiation by DPBF reagent based analysis; type: functional
4T1 [21] = experiment: Antitumor activity against mouse 4T1 cells implanted in mouse model assessed as reduction in tumor cells at 3 mg/kg, IG measured every two days for 15 days under 80 mW/cm2 for 15 mins by digital caliper method; type: functional, organism-based; conditions: time 15.0 day
4T1 [22] = experiment: Induction of ferroptosis in mouse 4T1 cells assessed as increase in MDA level at 10 nM preincubated in dark condition for 24 hrs followed by 20mW/cm2 white light irradiation for 10 mins and measured after 6 hrs by colorimetric assay; type: functional, cell-based; conditions: time 1810.0 min
4T1 [23] = experiment: Antitumor activity against mouse 4T1 cells implanted in mouse model assessed as tumor growth inhibition at 3 mg/kg, IG measured every two days for 15 days under 80 mW/cm2 for 15 mins by digital caliper method relative to control; type: functional; conditions: 4T1, po, 360 h, time 15 day, read-out: TGI
4T1 [24] = experiment: Antitumor activity against mouse 4T1 cells implanted in mouse model assessed as reduction in tumor weight at 3 mg/kg, IG measured every two days for 15 days under 80 mW/cm2 for 15 mins by digital caliper method; type: functional, organism-based; conditions: time 15.0 day
4T1 [25] = experiment: Induction of intracellular ROS generation in mouse 4T1 cells assessed as increase in green fluorescence intensity at 5 to 60 nM incubated in dark for 24 hrs followed by compound removal and measured after 5 mins under 20 mW/cm2H2 white light irradiation in presence of NaN3 by H2-DCFDA staining based fluorescence assay; type: functional, cell-based; conditions: dose 5-60 nM
4T1 [26] = experiment: Induction of ferroptosis in mouse 4T1 cells assessed as cell viability at 20 nM preincubated for 24 hrs followed by white light irradiation at 20 mW/cm2 and measured after 24 hrs in presence of Z-VAD-FMK by MTT assay; type: functional, cell-based; conditions: time 48.0 hrs
[27] = Toxicity in mouse assessed as effect on kidney in at 3 mg/kg, IG measured after 15 days by H and E staining based analysis; type: organism-based; conditions: in vivo, po, 360 h, time 15 day
4T1 [28] = experiment: Induction of ferroptosis in mouse 4T1 cells assessed as cell viability at 20 nM preincubated for 24 hrs followed by white light irradiation at 20 mW/cm2 and measured after 24 hrs in presence of Nec-1 by MTT assay; type: functional, cell-based; conditions: time 48.0 hrs
[29] = Drug localization in endoplasmic reticulum of mouse 4T1 cells assessed as increase in green fluorescence at 2 uM incubated for 12 hrs by confocal scanning microscopy analysis; type: ADME, subcellular; conditions: 4t1, 12 h
[30] = Toxicity in mouse assessed as effect on spleen in at 3 mg/kg, IG measured after 15 days by H and E staining based analysis; type: organism-based; conditions: in vivo, po, 360 h, time 15 day
[31] = Drug localization in Lipid droplet of mouse 4T1 cells assessed as increase in green fluorescence at 2 uM incubated for 12 hrs by confocal scanning microscopy analysis; type: ADME, subcellular; conditions: 4t1, 12 h
4T1 [32] = experiment: Antitumor activity against mouse 4T1 cells implanted in mouse model assessed as reduction in metastatic tumor at 3 mg/kg, IG measured every two days for 15 days by digital caliper method; type: functional, organism-based; conditions: time 15.0 day
[33] = Drug localization in mitochondria of mouse 4T1 cells assessed as increase in green fluorescence by measuring pearson correlation coefficient at 2 uM incubated for 12 hrs by confocal scanning microscopy analysis; type: ADME; conditions: 4t1, 12 h
4T1 [34] = experiment: Induction of ferroptosis in mouse 4T1 cells assessed as decrease in intracellular GSH level at 10 nM preincubated in dark condition for 24 hrs followed by 20mW/cm2 white light irradiation for 10 mins and measured after 12 hrs by colorimetric assay; type: functional, cell-based; conditions: time 2170.0 min
[35] = Potency index, ratio of IC50 for Chlorin e6 to IC50 for test compound for phototoxicity in human MDA-MB-231 cells assessed as cell viability preincubated for 24 hrs followed by white light irradiation at 20 mW/cm2 for 10 mins and measured after 24 hrs by MTT assay; type: functional; conditions: time 48 hrs
4T1 [36] = experiment: Induction of intracellular ROS generation in mouse 4T1 cells assessed as increase in green fluorescence intensity at 5 to 60 nM incubated in dark for 24 hrs followed by compound removal and measured after 5 mins under 20 mW/cm2H2 white light irradiation by H2-DCFDA staining based fluorescence assay; type: functional, cell-based; conditions: dose 5-60 nM
4T1 [37] = experiment: Induction of ferroptosis in mouse 4T1 cells assessed as cell viability at 20 nM preincubated for 24 hrs followed by white light irradiation at 20 mW/cm2 and measured after 24 hrs in presence of 3-MA by MTT assay; type: functional, cell-based; conditions: time 48.0 hrs
4T1 [38] = experiment: Antitumor activity against mouse 4T1 cells implanted in mouse model assessed as infiltration of immune cells at 3 mg/kg, IG measured every two days for 15 days under 80 mW/cm2 for 15 mins by digital caliper method; type: functional, organism-based; conditions: time 15.0 day
[39] = Drug localization in Lysosome of mouse 4T1 cells assessed as increase in green fluorescence by measuring pearson correlation coefficient at 2 uM incubated for 12 hrs by confocal scanning microscopy analysis; type: ADME, subcellular; conditions: 4t1, 12 h

Which CC50 at 24 h [1] does the source give for `C=Cc1c(C)c2cc3nc(c(CC(=O)O)c4[nH]c(cc5nc(cc1[nH]2)C(C)=C5CC)c(C)c4C(=O)O)[C@@H](CCC(=O)O)[C@@H]3C` [CHLORIN E6] here?
Its CC50 at 24 h is greater than 50 µM.

What about the selectivity ratio [2] of the same compound?
The selectivity ratio was greater than 39.

What about the selectivity ratio [3] of the same compound?
The selectivity ratio was greater than 58.

And the selectivity ratio [4]?
Its selectivity ratio is greater than 43.

What about the IC50 [5] of the same compound?
Its IC50 is 1.27 µM.

And the IC50 [6]?
Its IC50 is 0.85 µM.

And the CC50 at 24 h [7]?
The CC50 at 24 h was greater than 50 µM.

What about the CC50 at 24 h [8] of the same compound?
The CC50 at 24 h was greater than 50 µM.

What about the selectivity ratio [9] of the same compound?
Its selectivity ratio is greater than 59.

What about the IC50 [10] of the same compound?
The IC50 was 1.17 µM.

What about the IC50 [11] of the same compound?
Its IC50 is 0.862 µM.

What about the CC50 at 24 h [12] of the same compound?
The CC50 at 24 h was greater than 50 µM.

For `COC(=O)c1cc2c3ccccc3n(C)c2c(C2=C3C(C)=C(I)C(C)=[N+]3[B-](F)(F)n3c(C)c(I)c(C)c32)n1`, which Activity [13] is on record?
The Activity was 0.93.

And the Activity (4T1 [14])?
The Activity was “inactive”.

What about the CC50 at 24 h [1] of the same compound?
The CC50 at 24 h was greater than 100 µM.

What about the selectivity ratio [2] of the same compound?
The selectivity ratio was greater than 8830.

What about the Activity [15] of the same compound?
Its Activity is “Non-toxic”.

And the Activity [16]?
Its Activity is 0.22.

What about the Activity [17] of the same compound?
Its Activity is “Non-toxic”.

What about the Activity (4T1 [18]) of the same compound?
Its Activity is “Active”.

And the Activity [19]?
The Activity was “Non-toxic”.

What about the selectivity ratio [3] of the same compound?
Its selectivity ratio is greater than 5290.

What about the Activity [20] of the same compound?
The Activity was 0.78.

And the Activity (4T1 [21])?
Its Activity is “Active”.

What about the Activity (4T1 [22]) of the same compound?
Its Activity is “Active”.

What about the inhibition in vivo at 3 mg/kg (4T1 [23]) of the same compound?
The inhibition in vivo at 3 mg/kg was 67.6%.

What about the selectivity ratio [4] of the same compound?
Its selectivity ratio is greater than 9960.

And the IC50 [5]?
Its IC50 is 0.011 µM.

What about the IC50 [6] of the same compound?
The IC50 was 0.013 µM.

What about the Activity (4T1 [24]) of the same compound?
Its Activity is “Active”.

What about the Activity (4T1 [25]) of the same compound?
Its Activity is “inactive”.

And the Activity (4T1 [26])?
Its Activity is “inactive”.

What about the Activity [27] of the same compound?
The Activity was “Non-toxic”.

What about the Activity (4T1 [28]) of the same compound?
Its Activity is “inactive”.

And the CC50 at 24 h [7]?
Its CC50 at 24 h is greater than 100 µM.

What about the Drug uptake [29] of the same compound?
Its Drug uptake is “Active”.

And the CC50 at 24 h [8]?
Its CC50 at 24 h is greater than 100 µM.

What about the Activity [30] of the same compound?
The Activity was “Non-toxic”.

What about the Drug uptake [31] of the same compound?
Its Drug uptake is “Active”.

What about the selectivity ratio [9] of the same compound?
Its selectivity ratio is greater than 7750.

And the Activity (4T1 [32])?
The Activity was “Active”.

And the Activity [33]?
The Activity was 0.49.

And the Activity (4T1 [34])?
Its Activity is “Active”.

What about the “Ratio IC50” value [35] of the same compound?
Its value is 38.

What about the IC50 [10] of the same compound?
Its IC50 is 0.01 µM.

What about the Activity (4T1 [36]) of the same compound?
Its Activity is “Active”.

What about the IC50 [11] of the same compound?
Its IC50 is 0.019 µM.

What about the CC50 at 24 h [12] of the same compound?
The CC50 at 24 h was greater than 100 µM.

What about the Activity (4T1 [37]) of the same compound?
The Activity was “inactive”.

What about the Activity (4T1 [38]) of the same compound?
Its Activity is “Active”.

And the Activity [39]?
The Activity was 0.53.
